{"source": "patent US9580487B2", "about": "“Method of treating stomach or bowel-related disorders by administering glucagon-like-peptide-2 (GLP-2) analogues” (Zealand Pharma A/S, priority 2005, dated 2017)", "note": "“Also recorded” adds a separate entry of the source. No end group written: not given here.", "data": [{"test_system": "male C57BL mice", "experiment": "Dose-response effect on intestinal growth (SI mass, SI-Colon Sensitivity Index, colon and stomach mass)", "format": "in vivo", "conditions": "5-405 nmol/kg s.c. b.i.d. for three days", "experimental": "(§1) Values are means±SEM. *: P<0.05 relative to the equimolar dose of [Gly2]GLP-2 (SEQ ID NO:54).\n(§2) FIG. 2 is a set of graphs showing full dose-response data of four small intestine selective compounds (compound nos. 1846 (SEQ ID NO:34), 1855 (SEQ ID NO:43), 1848 (SEQ ID NO:36), 1858 (SEQ ID NO:46)) on the Small Intestine (SI)-to-Colon Sensitivity Index mice relative to the non-selective reference compound [Gly2]GLP-2 (SEQ ID NO:54). Compounds were administered by subcutaneous injection b.i.d. for three days in C57BL mice at the following doses: 0 (vehicle), 5, 15, 45, 135, 405 nmol/kg (n=6/dose group). Responses at each dose level were compared with responses obtained at the same dose level in pair-treated mice treated with the non-selective reference compound [Gly2]GLP-2 (SEQ ID NO:54). The SI-Colon Sensitivity Index was calculated as SI-mass relative to colon mass and the Sensitivity Index at each dose level was normalized to the response observed with the non-selective reference compound [Gly2]GLP-2 (SEQ ID NO:54). […] Values are means±SEM. *: P<0.05 relative to the equimolar dose of [Gly2]GLP-2.\n(§3) FIG. 4 is a set of graphs showing full dose-response data of three small intestine selective compounds (compound nos. 1857 (SEQ ID NO:45), 1820 (SEQ ID NO:10), and 1849 (SEQ ID NO:37)) on the Small Intestine (SI)-to-Colon Sensitivity Index mice relative to the non-selective reference compound [Gly2]GLP-2 (SEQ ID NO:54). Compounds were administered by subcutaneous injection b.i.d. for three days in C57BL mice at the following doses: 0 (vehicle), 5, 15, 45, 135, 405 nmol/kg (n=6/dose group). Responses at each dose level were compared with responses obtained at the same dose level in pair-treated mice treated with the non-selective reference compound [Gly2]GLP-2 (SEQ ID NO:54). The SI-Colon Sensitivity Index was calculated as SI-mass relative to colon mass and the Sensitivity Index at each dose level was normalized to the response observed with the non-selective reference compound [Gly2]GLP-2 (SEQ ID NO:54). […] Values are means±SEM. *: P<0.05 relative to the equimolar dose of [Gly2]GLP-2 (SEQ ID NO:54).\n(§4) Compounds were administered by subcutaneous injection b.i.d. for three days in C57BL mice at the following doses: 0 (vehicle), 5, 15, 45, 135, 405 nmol/kg (n=6/dose group). […] Values are means±SEM. *: P<0.05 relative to the vehicle.\n(§5) The dose-response effect of 1820 (SEQ ID NO:10), 1855 (SEQ ID NO:43), ZP1846 (SEQ ID NO:34), 1858 (SEQ ID NO:46), 1849 (SEQ ID NO:37), 1848 (SEQ ID NO:36), and 1857 (SEQ ID NO:45) on small intestinal mass was determined in male C57BL mice. Individual groups (n=6) of mice were given 5, 15, 45, 135 or 405 nmol/kg of each compound, s.c, twice daily for three consecutive days. For comparison purposes other groups of animals were given either equimolar doses of [Gly2]GLP-2 (SEQ ID NO:54) or vehicle (phosphate buffered saline, pH 7.4) in the same dosing regimen. Twenty-four hours after the last dose of compound had been given the mice were sacrificed and the small intestine (from the pylorus to the cecum emptied and weighed to determine the effect on small intestinal mass.", "values": [{"substance": "[Gly2, Glu3, Leu10, Ser11, Ala16,24,28]hGLP-2(1-33)-NH2 [Compound 1857]", "SI-Colon Sensitivity Index (SI mass relative to colon mass) relative to [Gly2]GLP-2": "increased maximal small intestinal sensitivity relative to [Gly2]GLP-2; also recorded: increased selectivity for causing growth of the small intestine relative to the colon", "Small intestinal mass (SI-BW ratio), maximal response relative to [Gly2]GLP-2": "maximal responses that were significantly greater than [Gly2]GLP-2"}, {"substance": "[Gly2, Glu3, Ser8,11, Leu10, Ala16,24,28]hGLP-2(1-33)-(Lys)6-NH2 (HGEGSFSSELSTILDALAARDFIAWLIATKITDKKKKKK-NH2) [Compound 1846]", "SI-Colon Sensitivity Index (SI mass relative to colon mass) relative to [Gly2]GLP-2": "increased maximal small intestinal sensitivity relative to [Gly2]GLP-2; also recorded: increased selectivity for causing growth of the small intestine relative to the colon", "Small intestinal mass (SI-BW ratio), maximal response relative to [Gly2]GLP-2": "maximal responses that were significant greater than [Gly2]GLP-2"}, {"substance": "[Gly2, Glu3, Thr5, Ser8, Leu10, Ala11,16,24,28]hGLP-2(1-33)-(Lys)6-NH2 (HGEGTFSSELATILDALAARDFIAWLIATKITDKKKKKK-NH2) [Compound 1848]", "SI-Colon Sensitivity Index (SI mass relative to colon mass) relative to [Gly2]GLP-2": "increased maximal small intestinal sensitivity relative to [Gly2]GLP-2; also recorded: increased selectivity for causing growth of the small intestine relative to the colon", "Small intestinal mass (SI-BW ratio), maximal response relative to [Gly2]GLP-2": "maximal responses that were significant greater than [Gly2]GLP-2"}, {"substance": "[Gly2, Glu3, Thr5, Ser8, Leu10, Ala11,16,24,28]hGLP-2(1-33)-NH2 [Compound 1855]", "SI-Colon Sensitivity Index (SI mass relative to colon mass) relative to [Gly2]GLP-2": "increased maximal small intestinal sensitivity relative to [Gly2]GLP-2; also recorded: increased selectivity for causing growth of the small intestine relative to the colon", "Small intestinal mass (SI-BW ratio), maximal response relative to [Gly2]GLP-2": "maximal responses that were significant greater than [Gly2]GLP-2"}]}, {"test_system": "male C57BL mice", "experiment": "Dose-response effect on intestinal growth (SI mass, SI-Colon Sensitivity Index, colon and stomach mass)", "format": "in vivo", "conditions": "5-405 nmol/kg s.c. b.i.d. for three days, vs vehicle", "experimental": "as §1, §2, §3, §4, §5", "values": [{"substance": "[Gly2, Glu3, Thr5, Ser8, Leu10, Ala11,16,24,28]hGLP-2(1-33)-(Lys)6-NH2 (HGEGTFSSELATILDALAARDFIAWLIATKITDKKKKKK-NH2) [Compound 1848]", "Growth stimulation of small intestine, colon and stomach mass": "only produced dose-dependent growth stimulation in the small intestine"}]}]}
